# Results reported in patent publication US9187439B2, “Tricyclic compounds useful as neurogenic and neuroprotective agents” (INCEPTION 1, INC., priority 2011, dated 2015).
# Assays:
# [1] = target: T1, Recombinant GST-Bax protein (Homo sapiens, UniProt Q07812); experiment: BAX liposome assay; assay type: biochemical
# T1 construct: purchased Abnova
# Description: Inhibition of BAX oligomerization and pore formation was evaluated using a liposome assay preparation. To do so, 30% 1,2-dioleoyl-sn-glycero-3-phosphate and 70% 1,2-dioleoyl-sn-glycero-3-phosphocholine (Avanti Polar Lipids, Alabaster, Ala.) were mixed in chloroform followed by evaporation at 37° C. under nitrogen (Saito et al., 2000). Liposomes were then rehydrated with agitation in buffer containing 50 mM 10 kD-dextran carboxyfluorescein (dextran-CF, Invitrogen, Carlsbad, Calif.), 100 mM KCl, 1 mM EDTA and 20 mM HEPES at pH 7.4. Liposomes were then sized using 5 freeze-thaw cycles, 5 minutes in a sonication bath, followed by 3 passages through a 5 μm syringe filter and 5 passages through a 0.2 μm syringe filter. Free dextran-CF was removed by Sepharose S-300 size exclusion chromatography (GE Healthcare, Piscataway, N.J.). Recombinant GST-Bax protein (Abnova, Taipei, Taiwan) was activated by incubating for 30 minutes in 2% octyglucoside in the presence or absence of compound X in a 96-well plate. Liposomes were then added to the activated GST-Bax (final concentration 10 nM). Carboxyfluorescein release from liposomes was measured by excitation with 497 nm light and the […] monitored for 15 minutes.
# [2] = test system: SH-SY5Y human neuroblastoma cells; experiment: In vitro human SHSY5Y survival assay (neuronal survival assay); assay type: cell-based; conditions: n=2
# Description: In Vitro Human SHSY5Y Survival Assay
# In order to determine if compounds effect cell survival, we tested them in an in vitro assay using the human neuroblastoma cell line SH-SY5Y. SH-SY5Y human neuroblastoma cells treated with retinoic acid for 5 days produce a homogeneous population of neuronal differentiated cells that are strictly dependant on BDNF for their survival. SH-SY5Y cells are plated on 96-well collagen coated plates and incubated for 24 hours. Retinoic acid is then added and incubated on the cells for 5 days. After 5 days, media with retinoic acid is removed and replaced with serum free media+/−compound. Each plate includes basal media (negative) and BDNF (positive) controls. The cells are then fixed with paraformaldehyde (3.7%) and stained with the nuclear marker Hoechst and the neuronal marker beta-Tubulin III. The plate is imaged using the In Cell Analyzer 2000™. Each well is imaged in 9 different spots throughout the well. The images are analyzed with a custom-designed algorithm using the In Cell Developer™ software. Data is averaged per compound concentration and calculated as a background subtracted percent of positive control.
# [3] = test system: mitochondria isolated from HeLa cells; experiment: HeLa cytochrome C release assay; assay type: biochemical; conditions: at a concentration of 10 μM; release initiated with t-Bid 25 nM
# Description: HeLa Cytochrome C Release Assay
# […] by a compound of Formula I (and/or a compound of any of the other formulae described herein), was evaluated in mitochondria isolated from HeLa cells. In the assay, 10-20 million HeLa cells were resuspended in assay buffer (70 mM sucrose; 230 mM mannitol; 1 mM EDTA; 5 mM HEPES, pH 7 with KOH) containing protease inhibitor cocktail (Sigma P-8340) and treated with 1.5 μg/million cells digitonin for 5 minutes at 4° C. Cells were pelleted by centrifugation and washed twice with assay buffer containing 0.5% BSA. Cells were resuspended in assay buffer and homogenized with a Dounce homogenizer (60 strokes) on ice. Intact cells were removed by centrifugation (1000×g, 10 min) and the supernatant centrifuged (8,500×g, 10 min) The mitochondrial pellet was resuspended in assay buffer to achieve a protein concentration of 0.333 μg/ml. 15 μl of Test compound (at 5× dilution) was combined with 45 μl mitochondria and incubated for 15 min at RT. Cytochrome C release was initiated with 15 μl t-Bid (final conc=25 nM) and the reaction continued for 30 min at RT. Samples were then centrifuged (12,000×g, 10 min) and 50 μl of the supernatant analyzed for cytochrome C content by ELISA (R & D Systems, #DCTCO).
# T1 sequence (Q07812 whole entry): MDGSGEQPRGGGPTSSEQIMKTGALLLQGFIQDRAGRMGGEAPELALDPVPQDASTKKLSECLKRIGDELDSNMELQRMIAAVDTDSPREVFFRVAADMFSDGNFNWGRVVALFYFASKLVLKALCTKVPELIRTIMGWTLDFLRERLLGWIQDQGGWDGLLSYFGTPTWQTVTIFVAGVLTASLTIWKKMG
IC50 [1] [µM],Structure (SMILES),EC50 [2] [µM],inhibition of cytochrome C release [3] [%]
24.6,"OC(CN1CC2(COC2)C1)CN1c2ccccc2Sc2ccc(C(F)(F)F)cc21 (racemic) [Example 1, (±)-1-(2-oxa-6-azaspiro[3.3]heptan-6-yl)-3-(2-(trifluoromethyl)-10H-phenothiazin-10-yl)propan-2-ol]",0.509,
,"OC(CN1CC2(CNC2)C1)CN1c2ccccc2Sc2ccc(C(F)(F)F)cc21 (racemic) [Example 3, (±)-1-(2,6-diazaspiro[3.3]heptan-2-yl)-3-(2-(trifluoromethyl)-10H-phenothiazin-10-yl)propan-2-ol]",,93
,"FC(F)(F)c1ccc2c(c1)N(CCCN1CC3(CNC3)C1)c1ccccc1S2 [Example 4, 10-(3-(2,6-diazaspiro[3.3]heptan-2-yl)propyl)-2-(trifluoromethyl)-10H-phenothiazine]",,27
